Experiments:
CYP3A [1] = conditions: male, human, in vivo
Method: The subject was not receiving any medication. […] Urine samples were obtained at a timed period (0-2, 2-4, 4-6, 6-8, 8-10, and 10-12) and the volume of the urine samples was noted. The recommended frequency of blood sampling is at least one time during a 2-hour urine collection. Urinary concentrations of cortisol and 6β-hydroxycortisol and plasma concentrations of cortisol were determined by HPLC and GC-MS, respectively. “The endogenous metabolic clearance (CLm(6β)-endo)” was calculated by Equation 4.
c) The fractional metabolic clearance for the 6β-hydroxylation of endogenous cortisol (CLm(6β)) is expressed as the amount of urinary excreted 6β-hydroxycortisol (X(6β)) divided by the area under the concentration-time curve of cortisol (AUC(F)); that is, CLm(6β)=X(6β)/AUC(F).

CYP3A [2] = conditions: pretreatment with 500-mg of clarithromycin twice a day for 7 days; cited from earlier work

For `CC[C@H]1OC(=O)[C@H](C)[C@@H](O[C@H]2C[C@@](C)(OC)[C@@H](O)[C@H](C)O2)[C@H](C)[C@@H](O[C@@H]2O[C@H](C)C[C@H](N(C)C)[C@H]2O)[C@](C)(OC)C[C@@H](C)C(=O)[C@H](C)[C@@H](O)[C@]1(C)O` [clarithromycin], the “variation of CLm(6β)-endo values during treatment” value (CYP3A [1]) is given as 1.2 fold, the midazolam sleep time (CYP3A [2]) is given as “doubling” and the “reduction in the systemic clearance of midazolam” value (CYP3A [2]) is given as 64%.
